Measured values: the METLIN SMRT retention time set (Domingo-Almenara et al. 2019)

Experiment: gradient 5% acetonitrile 3 min, to 50% in 2 min, to 85% in 15 min, held 3 min, 100 µL/min
Conditions: column: Zorbax Extend-C18 2.1 x 50 mm; eluents: water / acetonitrile, 0.1% formic acid
Method in brief: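 Standards, all pure, were combined into mixtures of ~100 molecules and run at 100 μL/min on a Zorbax Extend-C18 column (2.1 × 50 mm, 1.8 μm) with water and acetonitrile, each containing 0.1% formic acid. A coupled quadrupole time-of-flight mass spectrometer operated in positive and negative ionization mode. Retention time values come from computationally picked adduct peaks, each inspected manually.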

Structure (SMILES)	RP-LC retention time
O=C(NCCOc1ccc(F)cc1)C1CCCN(c2ccc(-c3cccs3)nn2)C1 (configuration not stated)	702 s
O=C(Cn1cccc(-c2nc(-c3ccccc3)no2)c1=O)Nc1ccccc1Br	898 s
CC(=O)N1CCc2c(c(CNC(=O)Cc3c(C)noc3C)nn2C)C1	570 s
Cc1c(Cl)cccc1NC(=O)C1CCCN(c2nc3ccccc3nc2C(F)(F)F)C1 (configuration not stated)	1230 s
Cc1cc(OC(C)C(=O)N[C@@H](C)C(=O)O)c2c3c(c(=O)oc2c1)CCCC3 (some centres not stated)	767 s
Cn1cc(CCNC(=O)CSc2ccccc2)c2cccnc21	686 s
COc1cccc(S(=O)(=O)N2CCC(Cc3nncn3C(C)C)C2)c1 (configuration not stated)	664 s
Cc1cc(N2CCN(C(=O)Cc3ccccc3Br)CC2)nc2nncn12	622 s
COc1cccc(CNC(=O)Nc2c(-c3ccc(C)cc3)nc3ccccn23)c1	658 s
COc1ccc(S(=O)(=O)Nc2nc(C(=O)Nc3cccc(Cl)c3)cs2)cc1	844 s
CCN1CCN(S(=O)(=O)c2cccc(-c3nnc(-c4ccc(C)cc4)o3)c2)CC1	682 s
COc1ccc(C(=O)Nc2cccn3nc(C(C)C)nc23)cc1	873 s
CCOc1ccc(-c2csc(C)n2)cc1S(=O)(=O)N1CCN(c2ccc(OC)cc2)CC1	1060 s
Cn1c(=O)n(C2CCN(Cc3ccsc3)CC2)c2ncncc21	552 s
CCC1CCCCN1CCNC(=O)C1CCCN(c2cnc3nccnc3c2)C1 (configuration not stated)	569 s
COCCCNC(=O)C1COc2ccc(NC(=O)c3ccc(Br)cc3)cc2C1 (configuration not stated)	788 s
O=C(Cc1ccsc1)N1CCCn2cc(-c3ccccc3F)nc21	784 s
O=C(NCCN1CCCCC1)c1ccc2c(=O)n(-c3ccccc3)c(N3CCCC3)nc2c1	614 s
O=C(Nc1ccccc1)N1CCc2nc[nH]c2C1	560 s

Structure (SMILES)	RP-LC retention time
COc1ccc2c(c1)C1(CCN(C(=O)C(C)(C)C)C1)C(=O)N2C (configuration not stated)	764 s
COc1ccc(C(=O)Nc2nc3c(s2)CCCC3C(=O)NCCC2=CCCCC2)cc1 (configuration not stated)	1040 s
O=c1n(CCOc2ccc(F)cc2)nc2ccc(S(=O)(=O)N3CCCCC3)cn12	938 s
CCc1noc(-c2ccnc(-n3ncc(C(=O)NC4CC4)c3C)c2)n1	815 s
COCCNc1c(-c2ccc(F)cc2)nc2sc(C(=O)N3CCCC3)c(C)n12	757 s
CC(C)n1c(CC2CCN(C(=O)c3ccccc3Cl)C2)nc2cccnc21 (configuration not stated)	622 s
CC(C)CC(=O)Nc1ccc(-n2cnc(C(=O)N3CCC(C)CC3)c2)nc1	774 s
O=C(Nc1nc2ccccc2s1)c1ccc(S(=O)(=O)N2CCc3ccccc32)cc1	1040 s
O=C(NCCn1cnc2cc(C(=O)N3CCCC3)ccc21)NCc1ccco1	985 s
O=C(c1cc2ccccc2[nH]1)N1CCCn2nc(-c3cccs3)cc2C1	899 s
COc1ccc(C2Cn3nc(-c4nc(C(C)(C)C)no4)cc3CO2)cc1 (configuration not stated)	611 s
CN1C(=O)c2cccnc2Sc2cc(NC(=O)c3c(F)cccc3F)ccc21	754 s
CCn1c(=O)c2c(cc(C)n2C)n(CC(=O)Nc2ccc(F)cc2F)c1=O	764 s
Cc1cc(N2CCN(C(=O)c3ccc(Br)o3)CC2)nc(N2CCCCC2)n1	690 s
Cc1ccccc1NS(=O)(=O)c1cc(-c2[nH]ncc2C(=O)N2CCCCC2)oc1C	755 s
O=C(c1cccc(Br)c1)N1CCc2nc[nH]c2C1	595 s
CCCNC(=O)C1CCN(c2ccc(SCC(=O)NCc3cccs3)nn2)CC1	602 s
COCc1nc2nccc(-c3ccc(OC)cc3)n2n1	690 s
